Experiment: Photophysical properties of PEMCs (UV-vis absorption, fluorescence, QY)
Assay type: physicochemical
Protocol: Chemicals, including solvents, were purchased from Fisher Scientific and used as received. Deuterated solvents were purchased from Cambridge Isotope Laboratories (Cambridge, Mass.). All chemicals and solvents were purchased and used without further purification. Nuclear magnetic resonance (NMR) spectra were recorded on a 400 MHz Avance Bruker NMR spectrometer. ^1H and ^13C NMR chemical shifts are given in ppm relative to Si(CH3)4. The mass spectrometric data were conducted on a Bruker Solarix FT-ICRMS. Data for crystal structure was obtained on a Bruker D8 Quest CMOS diffractometer. The crystal was kept at T=296(2) K during data collection. Using APEX3, the structure was solved with the ShelXT 2014/5 structure solution program, using the intrinsic phasing method. The model was refined with version 2016/6 of ShelXL using full matrix least squares on F^2 minimization, using the Olex2 GUI. Analytical thin layer chromatography (TLC) was performed on TLC Silica gel 60 F254. […] UV-vis spectra were recorded on a Varian Cary 50 Bio spectrophotometer. Fluorescence spectra were obtained using a FluoroLog-3 Spectrofluorometer (Jobin Yvon/Horiba). 9,10-diphenylanthracene (QY=1.0) in cyclohexane was used as a fluorescence standard for QY determination. Fourier transform infrared (FTIR) spectra were recorded on a PerkinElmer Spectrum 100 FTIR Spectrometer. […]

COc1cc(C#Cc2ccc(C=O)cc2)c(OC)cc1C#Cc1ccc(C=O)cc1 [1a, 4,4′-((2,5-dimethoxy-1,4-phenylene)bis(ethyne-2,1-diyl))dibenzaldehyde]
Extinction coefficient (ε): 62700 M⁻¹ cm⁻¹
Quantum Yield (QY) (9,10-Diphenylanthracene (QY = 1.0) in cyclohexane as fluorescence standard): 31%

Source: patent publication US11480576B2, “Conjugated oligomer-based macrocycles for live cell imaging” (THE FLORIDA INTERNATIONAL UNIVERSITY BOARD OF TRUSTEES, priority 2019, dated 2022)
